Assay results: ChEMBL document CHEMBL4152332, “Discovery and synthesis of novel magnolol derivatives with potent anticancer activity in non-small cell lung cancer” (Eur J Med Chem, 2018)

Experiments:
NCI-H1975 [1] = test: Potency index, ratio of IC50 for magnolol to IC50 for test compound for antiproliferative activity against human NCI-H1975 cells after 72 hrs by MTT assay; type: functional
NCI-H441 = test: Antiproliferative activity against human H441 cells after 72 hrs by MTT assay; type: functional, cell-based; settings: NCI-H441, 72 h
NCI-H1975 [2] = test: Induction of apoptosis in human NCI-H1975 cells assessed as decrease in cyclin D1 level after 24 hrs by Western blot analysis; type: functional, cell-based
NCI-H1975 [3] = test: Cell cycle arrest in human NCI-H1975 cells assessed as accumulation at G0/G1 phase at 20 uM after 24 hrs by propidium iodide staining-based flow cytometric analysis (reference value: 56.11%); type: functional
NCI-H1975 [4] = test: Antitumor activity against human NCI-H1975 cells xenografted in Balb/c mouse assessed as change in tumor mass at 5 mg/kg, iv treated every 2 days for 9 days and measured every 2 days after compound dosing relative to control; type: functional
NCI-H1975 [5] = test: Cell cycle arrest in human NCI-H1975 cells assessed as increase in accumulation at G0/G1 phase after 24 hrs by propidium iodide staining-based flow cytometric analysis; type: functional
NCI-H1975 [6] = test: Cell cycle arrest in human NCI-H1975 cells assessed as accumulation at G2/M phase at 10 uM after 24 hrs by propidium iodide staining-based flow cytometric analysis (reference value: 20.11%); type: functional
Mus musculus [7] = test: Toxicity in Balb/c mouse xenografted with human NCI-H1975 cells assessed as effect on lung size at 5 to 20 mg/kg, iv treated every 2 days for 9 days; type: organism-based; settings: in vivo
NCI-H1975 [8] = test: Induction of apoptosis in human NCI-H1975 cells assessed as decrease in Cdk2 level after 24 hrs by Western blot analysis; type: functional, cell-based
Mus musculus [9] = test: Toxicity in Balb/c mouse xenografted with human NCI-H1975 cells assessed as change in body weight at 100 mg/kg, po qd treated for 18 days and measured every 2 days after compound dosing ( Rvb = 2.89%); type: organism-based; settings: in vivo
NCI-H1975 [10] = test: Induction of apoptosis in human NCI-H1975 cells assessed as decrease in cyclin E level after 24 hrs by Western blot analysis; type: functional, cell-based
Mus musculus [11] = test: Toxicity in Balb/c mouse xenografted with human NCI-H1975 cells assessed as effect on liver size at 5 to 20 mg/kg, iv treated every 2 days for 9 days; type: organism-based; settings: in vivo
HCC827 [12] = test: Antiproliferative activity against human HCC827 cells after 72 hrs by MTT assay; type: functional, cell-based; settings: HCC827, 72 h
NCI-H460 = test: Potency index, ratio of IC50 for magnolol to IC50 for test compound for antiproliferative activity against human H460 cells after 72 hrs by MTT assay; type: functional
NCI-H1975 [13] = test: Induction of apoptosis in human NCI-H1975 cells assessed as necrotic cells at 20 uM after 48 hrs by annexin V/FITC-propidium iodide staining-based flow cytometric method ( Rvb = 1.01%); type: functional
Mus musculus [14] = test: Toxicity in Balb/c mouse xenografted with human NCI-H1975 cells assessed as change in body weight at 30 mg/kg, po qd treated for 18 days and measured every 2 days after compound dosing ( Rvb = 2.89%); type: organism-based; settings: in vivo
NCI-H1975 [15] = test: Cell cycle arrest in human NCI-H1975 cells assessed as accumulation at S phase at 10 uM after 24 hrs by propidium iodide staining-based flow cytometric analysis (reference value: 22.93%); type: functional
NCI-H1975 [16] = test: Induction of apoptosis in human NCI-H1975 cells assessed as late apoptotic cells at 10 uM after 48 hrs by annexin V/FITC-propidium iodide staining-based flow cytometric method ( Rvb = 10.4%); type: functional
NCI-H1975 [17] = test: Induction of apoptosis in human NCI-H1975 cells assessed as increase in cleaved PARP level after 48 hrs by Western blot analysis; type: functional, cell-based
Mus musculus [18] = test: Toxicity in Balb/c mouse xenografted with human NCI-H1975 cells assessed as change in body weight at 5 mg/kg, iv treated every 2 days for 9 days and measured every 2 days after compound dosing ( Rvb = 2.89%); type: organism-based; settings: in vivo
NCI-H1975 [19] = test: Induction of apoptosis in human NCI-H1975 cells assessed as viable cells at 20 uM after 48 hrs by annexin V/FITC-propidium iodide staining-based flow cytometric method ( Rvb = 82.5%); type: functional; settings: NCI-H1975, 48 h, read-out: Activity
NCI-H1975 [20] = test: Induction of apoptosis in human NCI-H1975 cells assessed as viable cells at 10 uM after 48 hrs by annexin V/FITC-propidium iodide staining-based flow cytometric method ( Rvb = 82.5%); type: functional; settings: NCI-H1975, 48 h, read-out: Activity
NCI-H1975 [21] = test: Induction of apoptosis in human NCI-H1975 cells assessed as early apoptotic cells at 5 uM after 48 hrs by annexin V/FITC-propidium iodide staining-based flow cytometric method ( Rvb = 6.09%); type: functional
[22] = Antitumor activity against mouse C26 cells implanted in Balb/c mouse assessed as tumor growth inhibition at 100 mg/kg, po qd and measured every 2 days relative to control; type: functional; settings: 48 h, read-out: TGI
NCI-H1975 [23] = test: Cell cycle arrest in human NCI-H1975 cells assessed as accumulation at G0/G1 phase at 5 uM after 24 hrs by propidium iodide staining-based flow cytometric analysis (reference value: 56.11%); type: functional
NCI-H1975 [24] = test: Cell cycle arrest in human NCI-H1975 cells assessed as accumulation at S phase at 5 uM after 24 hrs by propidium iodide staining-based flow cytometric analysis (reference value: 22.93%); type: functional
NCI-H1975 [25] = test: Cell cycle arrest in human NCI-H1975 cells assessed as accumulation at G2/M phase at 20 uM after 24 hrs by propidium iodide staining-based flow cytometric analysis (reference value: 20.11%); type: functional
NCI-H1975 [26] = test: Cell cycle arrest in human NCI-H1975 cells assessed as accumulation at G2/M phase at 5 uM after 24 hrs by propidium iodide staining-based flow cytometric analysis (reference value: 20.11%); type: functional
NCI-H1975 [27] = test: Antitumor activity against human NCI-H1975 cells xenografted in Balb/c mouse assessed as change in tumor mass at 20 mg/kg, iv treated every 2 days for 9 days and measured every 2 days after compound dosing relative to control; type: functional
HCC827 [28] = test: Potency index, ratio of IC50 for honokiol to IC50 for test compound for antiproliferative activity against human HCC827 cells after 72 hrs by MTT assay; type: functional
NCI-H1975 [29] = test: Antitumor activity against human NCI-H1975 cells xenografted in Balb/c mouse assessed as change in tumor mass at 30 mg/kg, po qd treated for 18 days and measured every 2 days after compound dosing relative to control; type: functional
NCI-H1975 [30] = test: Antitumor activity against human NCI-H1975 cells xenografted in Balb/c mouse assessed as change in tumor mass at 10 mg/kg, po qd treated for 18 days and measured every 2 days after compound dosing relative to control; type: functional
NCI-H1975 [31] = test: Cell cycle arrest in human NCI-H1975 cells assessed as accumulation at S phase at 20 uM after 24 hrs by propidium iodide staining-based flow cytometric analysis (reference value: 22.93%); type: functional
NCI-H1975 [32] = test: Induction of apoptosis in human NCI-H1975 cells assessed as late apoptotic cells at 20 uM after 48 hrs by annexin V/FITC-propidium iodide staining-based flow cytometric method ( Rvb = 10.4%); type: functional
NCI-H1975 [33] = test: Cell cycle arrest in human NCI-H1975 cells assessed as reduction in accumulation at G2/M phase after 24 hrs by propidium iodide staining-based flow cytometric analysis; type: functional

SMILES: C=CCc1ccc(O)c(-c2cc(CC=C)cc(CN3CCC(N)CC3)c2O)c1
- Ratio IC50 (NCI-H1975 [1]): 8
- IC50 (NCI-H441): 5.63 µM
- Activity (NCI-H1975 [2]): Dose-dependent effect
- Activity (NCI-H1975 [3]): 79.45%
- Activity (NCI-H1975 [4]): 49.2%
- Activity (NCI-H1975 [5]): Dose-dependent effect
- Activity (NCI-H1975 [6]): 12.73%
- Activity (Mus musculus [7]): Non-Toxic
- Activity (NCI-H1975 [8]): Dose-dependent effect
- Activity (Mus musculus [9]): -5.72%
- Activity (NCI-H1975 [10]): Dose-dependent effect
- Activity (Mus musculus [11]): Non-Toxic
- IC50 (HCC827 [12]): 5.01 µM
- Ratio IC50 (NCI-H460): 8
- Activity (NCI-H1975 [13]): 0.35%
- Activity (Mus musculus [14]): 8.85%
- Activity (NCI-H1975 [15]): 18.57%
- Activity (NCI-H1975 [16]): 32.8%
- Activity (NCI-H1975 [17]): Dose-dependent effect
- Activity (Mus musculus [18]): 4.4%
- viability at 20 µM (NCI-H1975 [19]): 3.75%
- viability at 10 µM (NCI-H1975 [20]): 56.7%
- Activity (NCI-H1975 [21]): 6.68%
- inhibition in vivo at 100 mg/kg [22]: 47.9%
- Activity (NCI-H1975 [23]): 62.26%
- Activity (NCI-H1975 [24]): 22.39%
- Activity (NCI-H1975 [25]): 6.13%
- Activity (NCI-H1975 [26]): 13.41%
- Activity (NCI-H1975 [27]): 65.8%
- Ratio IC50 (HCC827 [28]): 4
- Activity (NCI-H1975 [29]): 59.3%
- Activity (NCI-H1975 [30]): 46.3%
- Activity (NCI-H1975 [31]): 12.63%
- Activity (NCI-H1975 [32]): 49.1%
- Activity (NCI-H1975 [33]): Dose-dependent effect
